The numbers were not newly measured in US20040142353A1, “Compositions and methods for identifying plants having increased tolerance to imidazolinone herbicides” (priority 2002, published 2004), which cites them from elsewhere.

For data set [1], the system named is B. napus mutants P1 and P2. The note with it: B. napus (cv 'Topas') mutants P1 and P2.
Data set [2] has as its system B. napus P1, P2, and P1×P2 hybrid. Conditions: field trials.

Where two headings read alike, the source gives them in different places.

`CCc1cnc(C2=NC(C)(C(C)C)C(=O)N2)c(C(=O)O)c1` (centres unmarked) [PURSUIT®, 2-[4,5-dihydro-4-methyl-4-(1-methylethyl)-5-oxo-1H-imidazol-2-yl]-5-ethyl-3-pyridinecarboxylic acid]: the entries for the “tolerance of mutant AHAS enzyme relative to wild type enzyme” value in the data set with AHAS enzyme (AHAS enzyme of homozygous P1 mutant vs wild type enzyme) and in the data set on AHAS enzyme (AHAS enzyme of homozygous P2 mutant vs wild type enzyme) were “only slightly more tolerant” and 500 times, respectively. Besides, the “level of herbicide tolerated by mutant plants” value in data set [1] is recorded as “approaching ten times the field-recommended rates”.
“methyl esters of 2-[4,5-dihydro-4-methyl-4-(1-methylethyl)-5-oxo-1H-imidazol-2-yl]-4-methylbenzoic acid and 2-[4,5-dihydro-4-methyl-4-(1-methylethyl)-5-oxo-1H-imidazol-2-yl]-5-methylbenzoic acid [ASSERT®]”: the “application rate withstood with no loss of yield” value in data set [2] is listed as “up to 800 g/ha”. The “level of herbicide tolerated by mutant plants” value in data set [1] is on record as “approaching ten times the field-recommended rates”.
